{"source": "the supplement of paper PMC11061612", "assay_in_all_cases": "Bliss excess, mean over the matrix (fraction); higher = more synergy", "key": {"[1]": {"system": "CAL-51 (Breast Carcinoma)", "procedure,_shortened": "(§1)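 Cell lines in DMEM/F12 or RPMI with 10% FBS were plated in 1536-well plates, held 24 hours at 37°C, 5% CO2, then given two-drug dose matrices for 72 hours (DMSO typically 0.2%). Viability was read by CellTiter-Glo 2.0 luminescence and scaled as inhibition from 0 (vehicle wells) to 1 (blank wells). Combination Emax is the second-highest inhibition in the matrix; Bliss excess is observed combination effect minus expected EA + EB − EA·EB, EA and EB being single-agent effects.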"}, "COLO-829 (Melanoma)": {"system": "COLO-829 (Melanoma)", "procedure,_shortened": "as §1"}, "[2]": {"system": "CTB-1 (B-Cell Non-Hodgkin's Lymphoma)", "procedure,_shortened": "as §1"}, "[3]": {"system": "KYSE-410 (Esophageal Squamous Cell Carcinoma)", "procedure,_shortened": "as §1"}, "[4]": {"system": "LB771-HNC (Head and Neck Carcinoma)", "procedure,_shortened": "as §1"}, "[5]": {"system": "MHH-PREB-1 (B-Cell Non-Hodgkin's Lymphoma)", "procedure,_shortened": "as §1"}, "[6]": {"system": "TE-4 (Esophageal Squamous Cell Carcinoma)", "procedure,_shortened": "as §1"}}, "data": [{"smiles": "CN(CCO)CC[C@H](CSc1ccccc1)Nc1ccc(S(=O)(=O)NC(=O)c2ccc(N3CCC([C@@H](O)c4ccccc4-c4ccc(Cl)cc4)CC3)cc2)cc1S(=O)(=O)C(F)(F)F", "note": "[AZD4320] + C[C@@H](Nc1cc(F)cc(F)c1)c1cc(C(=O)N(C)C)cc2c(=O)cc(N3CCOCC3)oc12 [AZD8186] (first compound max 1 µM, 7x7, partner max 3 µM)", "values": [{"measurement": "Bliss excess", "setting": "[1]", "value": 0.0283}, {"measurement": "Bliss excess", "setting": "COLO-829 (Melanoma)", "value": 0.0015}, {"measurement": "Bliss excess", "setting": "[2]", "value": 0.0266}, {"measurement": "Bliss excess", "setting": "[3]", "value": 0.0209}, {"measurement": "Bliss excess", "setting": "[4]", "value": 0.0095}, {"measurement": "Bliss excess", "setting": "[5]", "value": 0.0355}, {"measurement": "Bliss excess", "setting": "[6]", "value": 0.0296}]}]}
